≈ marks a conversion by molar mass, not a printed value. Calls of active or inactive are those of the source. The rule behind the calls is not given here.
Assays:
[1] = AUC (0 to t) in C57BL/6 mouse at 1 mg/kg, iv by HPLC analysis; assay type: ADME, organism-based; conditions: in vivo
[2] = target: Phosphatidylinositol 4,5-bisphosphate 3-kinase catalytic subunit alpha isoform (Homo sapiens, UniProt P42336); assay: Inhibition of PI3Kalpha (unknown origin)
[3] = Solubility of compound at pH 6.8; assay type: physicochemical; conditions: buffer
[4] = target: Serine/threonine-protein kinase ATR (Homo sapiens, UniProt Q13535); assay: Inhibition of ATR (unknown origin) assessed as reduction in CHK1 phosphorylation by cell based assay
[5] = target: Myosin light chain kinase, smooth muscle (Homo sapiens) (UniProt Q15746); assay: Inhibition of wild-type human […] MYLK (M854 to E1845 residues) expressed in mammalian expression system at 10000 nM by Kinomescan method
[6] = Protein binding in Sprague-Dawley rat plasma at 5 uM incubated for 4 hrs by LC-MS/MS analysis; assay type: ADME, cell-free; conditions: read-out: PPB (converted)
[7] = Tmax in C57BL/6 mouse at 1 mg/kg, iv or 5 mg/kg, po by HPLC analysis; assay type: ADME, organism-based; conditions: in vivo
[8] = Tmax in Sprague-Dawley rat at 1 mg/kg, iv or 3 mg/kg, po by HPLC analysis; assay type: ADME, organism-based; conditions: in vivo
[9] = target: Serine/threonine-protein kinase mTOR (Rattus norvegicus, UniProt P42346); assay: Inhibition of mTOR in rat primary cortical neuron assessed as reduction in PS6 phosphorylation incubated for 4 hrs by Western blot analysis (reference value: 19 nM)
[10] = Ratio of drug concentration in brain to plasma in C57BL/6 mouse at 1 mg/kg, iv incubated for 7 hrs by LC-MS/MS analysis; assay type: ADME, organism-based; conditions: read-out: BPR
[11] = Drug uptake in C57BL/6J mouse brain at 10 mg/kg, po incubated for 3 hrs by LC-MS/MS analysis; assay type: ADME, organism-based; conditions: read-out: Drug uptake
[12] = target: Phosphatidylinositol 4,5-bisphosphate 3-kinase catalytic subunit gamma isoform (Homo sapiens, UniProt P48736); assay: Inhibition of PI3Kgamma (unknown origin)
[13] = target: DNA-dependent protein kinase catalytic subunit (Homo sapiens, UniProt P78527); assay: Inhibition of DNAPK (unknown origin)
[14] = Ratio of drug concentration in brain to plasma in C57BL/6J mouse at 3 mg/kg, po incubated for 3 hrs by LC-MS/MS analysis; assay type: ADME, organism-based; conditions: read-out: BPR
[15] = target: Serine-protein kinase ATM (Homo sapiens, UniProt Q13315); assay: Inhibition of ATM (unknown origin) assessed as reduction in CHK2 phosphorylation by cell based assay
[16] = Cmax in C57BL/6 mouse at 1 mg/kg, iv or 5 mg/kg, po by HPLC analysis; assay type: ADME, organism-based; conditions: in vivo
[17] = target: Serine/threonine-protein kinase mTOR (Rattus norvegicus, UniProt P42346, L1460P); assay: Inhibition of mTOR L1460P mutant in rat primary cortical neuron assessed as reduction in PS6 phosphorylation incubated for 4 hrs by Western blot analysis (reference value: 19 nM)
[18] = target: 3',5'-cyclic-AMP phosphodiesterase 4D (Homo sapiens, UniProt Q08499); assay: Inhibition of PDE4D (unknown origin)
[19] = Ratio of drug concentration in brain to plasma in C57BL/6J mouse at 10 mg/kg, po incubated for 3 hrs by LC-MS/MS analysis; assay type: ADME, organism-based; conditions: read-out: BPR
[20] = system: MDR1; assay: Efflux ratio of permeability from basolateral to apical over apical to basolateral side in MDCK-MDR1 cells; assay type: ADME, cell-based, Canis lupus familiaris; conditions: dog
[21] = Selectivity index, ratio of IC50 for ATM (unknown origin) to IC50 for inhibition of mTOR in mouse MEF cells harboring TSC1 deletion mutant; assay type: cell-based
[22] = target: Cytochrome P450 2C9 (Homo sapiens, UniProt P11712); assay: Inhibition of CYP2C9 (unknown origin); assay type: ADME
[23] = target: Cytochrome P450 2D6 (Homo sapiens, UniProt P10635); assay: Inhibition of CYP2D6 (unknown origin); assay type: ADME
[24] = Drug uptake in C57BL/6J mouse brain at 3 mg/kg, po incubated for 3 hrs by LC-MS/MS analysis; assay type: ADME, organism-based; conditions: read-out: Drug uptake
[25] = MRT (0 to t) in Sprague-Dawley rat at 1 mg/kg, iv or 3 mg/kg, po by HPLC analysis; assay type: ADME, organism-based; conditions: in vivo
[26] = target: Cytochrome P450 3A4 (Homo sapiens, UniProt P08684); assay: Inhibition of CYP3A4 (unknown origin); assay type: ADME
[27] = target: Serine/threonine-protein kinase mTOR (Rattus norvegicus, UniProt P42346, E2419K); assay: Inhibition of mTOR E2419K mutant in rat primary cortical neuron assessed as reduction in PS6 phosphorylation incubated for 4 hrs by Western blot analysis (reference value: 19 nM)
[28] = Half life in C57BL/6 mouse at 1 mg/kg, iv or 5 mg/kg, po by HPLC analysis; assay type: ADME, organism-based; conditions: in vivo
[29] = AUC (0 to t) in Sprague-Dawley rat at 1 mg/kg, iv by HPLC analysis; assay type: ADME, organism-based; conditions: in vivo
[30] = system: Mus musculus; assay: In vivo inhibition of mTOR pathway in C57BL/6J mouse assessed as reduction in mTORC1/mTORC2 complex by measuring PS6 phosphorylation level at 1 to 10 mg/kg, po measured after 8 hrs by Western blot analysis; assay type: functional, organism-based
[31] = Drug uptake in C57BL/6J mouse plasma at 3 mg/kg, po incubated for 3 hrs by LC-MS/MS analysis; assay type: ADME, organism-based
[32] = Ratio of drug concentration in brain to plasma in C57BL/6J mouse at 1 mg/kg, po incubated for 3 hrs by LC-MS/MS analysis; assay type: ADME, organism-based; conditions: read-out: BPR
[33] = system: Mus musculus; assay: Protection against C57BL/6J mouse model of neuronal mTOR hyperactivity assessed as survival rate at 10 mg/kg, ip administered on postnatal day 22 daily and measured on postnatal day 36 (reference value: 48 %); assay type: functional
[34] = system: Cortical neurone; assay: Inhibition of overgrowth of mouse primary cortical neuron harboring TSC1 deletion mutant at 200 nM incubated for 7 days by immunofluorescence assay; assay type: functional, cell-based
[35] = Ratio of drug concentration in brain to plasma in Sprague-Dawley rat at 3 mg/kg, po incubated for 24 hrs by LC-MS/MS analysis; assay type: ADME, organism-based; conditions: read-out: BPR
[36] = AUC (0 to t) in C57BL/6 mouse at 5 mg/kg, po by HPLC analysis; assay type: ADME, organism-based; conditions: in vivo
[37] = MRT (0 to t) in C57BL/6 mouse at 1 mg/kg, iv or 5 mg/kg, po by HPLC analysis; assay type: ADME, organism-based; conditions: in vivo
[38] = Protein binding in C57BL/6 mouse plasma at 5 uM incubated for 4 hrs by LC-MS/MS analysis; assay type: ADME, cell-free; conditions: read-out: PPB
[39] = target: Phosphatidylinositol 4,5-bisphosphate 3-kinase catalytic subunit delta isoform (Homo sapiens, UniProt O00329); assay: Inhibition of PI3Kdelta (unknown origin)
[40] = system: Mus musculus; assay: In vivo inhibition of mTOR pathway in C57BL/6J mouse assessed as reduction in mTORC1/mTORC2 complex by measuring AKT phosphorylation level at 1 to 10 mg/kg, po measured after 8 hrs by Western blot analysis; assay type: functional, organism-based

Phosphatidylinositol 4,5-bisphosphate 3-kinase catalytic subunit delta isoform, sequence (O00329 whole entry, canonical isoform): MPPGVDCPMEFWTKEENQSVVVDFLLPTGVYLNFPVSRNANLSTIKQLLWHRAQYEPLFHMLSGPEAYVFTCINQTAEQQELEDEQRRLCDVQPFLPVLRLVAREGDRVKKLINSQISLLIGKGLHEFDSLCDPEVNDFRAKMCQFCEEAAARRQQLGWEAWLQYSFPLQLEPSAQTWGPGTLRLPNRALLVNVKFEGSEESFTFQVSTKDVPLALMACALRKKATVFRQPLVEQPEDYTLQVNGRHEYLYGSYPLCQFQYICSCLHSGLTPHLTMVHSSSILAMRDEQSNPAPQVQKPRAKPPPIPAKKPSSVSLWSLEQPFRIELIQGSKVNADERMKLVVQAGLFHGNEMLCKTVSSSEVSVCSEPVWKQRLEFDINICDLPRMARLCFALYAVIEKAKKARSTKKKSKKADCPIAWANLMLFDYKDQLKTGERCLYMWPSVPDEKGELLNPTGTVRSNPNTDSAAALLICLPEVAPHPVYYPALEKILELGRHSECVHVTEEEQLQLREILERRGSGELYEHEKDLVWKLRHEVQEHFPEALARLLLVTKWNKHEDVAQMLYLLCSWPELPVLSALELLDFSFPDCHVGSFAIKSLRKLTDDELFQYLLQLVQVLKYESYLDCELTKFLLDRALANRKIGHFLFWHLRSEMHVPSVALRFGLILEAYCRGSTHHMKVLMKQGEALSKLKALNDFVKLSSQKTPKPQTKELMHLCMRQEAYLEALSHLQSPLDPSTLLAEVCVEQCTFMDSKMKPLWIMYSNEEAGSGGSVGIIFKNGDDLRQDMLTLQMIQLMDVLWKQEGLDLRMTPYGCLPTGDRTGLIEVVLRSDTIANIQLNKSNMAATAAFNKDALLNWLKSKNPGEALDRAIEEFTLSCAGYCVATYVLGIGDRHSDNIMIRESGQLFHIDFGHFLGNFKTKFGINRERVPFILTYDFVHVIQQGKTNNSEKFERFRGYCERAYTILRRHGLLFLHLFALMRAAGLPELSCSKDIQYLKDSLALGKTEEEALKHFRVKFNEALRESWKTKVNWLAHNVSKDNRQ
Phosphatidylinositol 4,5-bisphosphate 3-kinase catalytic subunit gamma isoform, sequence (P48736 whole entry, canonical isoform): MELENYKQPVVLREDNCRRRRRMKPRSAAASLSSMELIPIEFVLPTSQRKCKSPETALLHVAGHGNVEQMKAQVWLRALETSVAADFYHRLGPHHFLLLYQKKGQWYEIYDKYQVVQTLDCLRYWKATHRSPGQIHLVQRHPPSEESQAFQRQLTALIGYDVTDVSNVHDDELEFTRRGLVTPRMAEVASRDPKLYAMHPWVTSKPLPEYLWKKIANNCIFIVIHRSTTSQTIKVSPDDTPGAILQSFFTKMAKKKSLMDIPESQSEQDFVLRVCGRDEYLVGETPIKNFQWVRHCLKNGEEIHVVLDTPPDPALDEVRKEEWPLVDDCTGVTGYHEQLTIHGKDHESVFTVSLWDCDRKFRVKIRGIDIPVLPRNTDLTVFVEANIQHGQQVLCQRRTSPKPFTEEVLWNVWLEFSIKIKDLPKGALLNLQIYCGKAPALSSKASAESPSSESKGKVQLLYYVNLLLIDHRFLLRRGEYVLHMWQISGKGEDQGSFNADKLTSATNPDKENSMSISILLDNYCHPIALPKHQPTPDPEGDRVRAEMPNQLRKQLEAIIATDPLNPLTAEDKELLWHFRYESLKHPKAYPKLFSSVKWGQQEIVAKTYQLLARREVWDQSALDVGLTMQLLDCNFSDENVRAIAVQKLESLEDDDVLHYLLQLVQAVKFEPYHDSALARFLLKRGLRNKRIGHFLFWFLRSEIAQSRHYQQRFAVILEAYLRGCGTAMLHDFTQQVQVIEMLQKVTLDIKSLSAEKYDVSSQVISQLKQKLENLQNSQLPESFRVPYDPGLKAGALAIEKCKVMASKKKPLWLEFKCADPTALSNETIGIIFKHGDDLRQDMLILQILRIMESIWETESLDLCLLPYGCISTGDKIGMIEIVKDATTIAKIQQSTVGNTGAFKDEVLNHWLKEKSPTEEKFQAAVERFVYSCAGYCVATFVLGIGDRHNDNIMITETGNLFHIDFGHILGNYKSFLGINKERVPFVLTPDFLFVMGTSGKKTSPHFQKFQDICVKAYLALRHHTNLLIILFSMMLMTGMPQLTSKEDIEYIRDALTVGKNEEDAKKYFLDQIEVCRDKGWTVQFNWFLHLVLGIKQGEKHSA
Phosphatidylinositol 4,5-bisphosphate 3-kinase catalytic subunit alpha isoform, sequence (P42336 whole entry, canonical isoform): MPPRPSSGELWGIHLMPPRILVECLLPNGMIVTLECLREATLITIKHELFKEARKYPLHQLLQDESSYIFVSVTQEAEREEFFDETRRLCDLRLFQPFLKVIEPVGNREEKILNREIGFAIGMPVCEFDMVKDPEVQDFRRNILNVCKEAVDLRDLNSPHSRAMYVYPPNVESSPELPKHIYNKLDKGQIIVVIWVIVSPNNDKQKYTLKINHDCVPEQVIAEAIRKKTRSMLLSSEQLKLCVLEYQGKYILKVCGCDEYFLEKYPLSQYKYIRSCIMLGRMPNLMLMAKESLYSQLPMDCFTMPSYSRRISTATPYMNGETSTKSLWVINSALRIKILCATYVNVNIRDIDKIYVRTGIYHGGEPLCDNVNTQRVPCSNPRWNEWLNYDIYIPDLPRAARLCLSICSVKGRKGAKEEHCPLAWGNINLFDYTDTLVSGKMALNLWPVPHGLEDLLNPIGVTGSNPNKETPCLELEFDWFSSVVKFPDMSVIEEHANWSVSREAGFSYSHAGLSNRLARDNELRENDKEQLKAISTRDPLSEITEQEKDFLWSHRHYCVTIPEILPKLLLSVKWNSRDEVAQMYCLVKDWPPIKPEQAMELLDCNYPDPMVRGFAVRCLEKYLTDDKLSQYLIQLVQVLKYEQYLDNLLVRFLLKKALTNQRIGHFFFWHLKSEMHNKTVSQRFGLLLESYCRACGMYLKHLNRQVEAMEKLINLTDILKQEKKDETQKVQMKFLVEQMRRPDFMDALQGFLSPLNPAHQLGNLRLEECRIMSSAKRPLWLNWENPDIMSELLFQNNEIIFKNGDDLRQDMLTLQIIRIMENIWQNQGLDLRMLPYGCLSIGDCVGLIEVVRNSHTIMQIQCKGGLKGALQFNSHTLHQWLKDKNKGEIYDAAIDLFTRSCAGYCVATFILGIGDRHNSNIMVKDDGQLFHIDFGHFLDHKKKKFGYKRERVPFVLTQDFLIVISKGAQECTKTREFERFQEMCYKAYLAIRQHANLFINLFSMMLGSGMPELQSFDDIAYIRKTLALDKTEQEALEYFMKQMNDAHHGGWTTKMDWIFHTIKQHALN
Cytochrome P450 3A4, sequence (P08684 whole entry): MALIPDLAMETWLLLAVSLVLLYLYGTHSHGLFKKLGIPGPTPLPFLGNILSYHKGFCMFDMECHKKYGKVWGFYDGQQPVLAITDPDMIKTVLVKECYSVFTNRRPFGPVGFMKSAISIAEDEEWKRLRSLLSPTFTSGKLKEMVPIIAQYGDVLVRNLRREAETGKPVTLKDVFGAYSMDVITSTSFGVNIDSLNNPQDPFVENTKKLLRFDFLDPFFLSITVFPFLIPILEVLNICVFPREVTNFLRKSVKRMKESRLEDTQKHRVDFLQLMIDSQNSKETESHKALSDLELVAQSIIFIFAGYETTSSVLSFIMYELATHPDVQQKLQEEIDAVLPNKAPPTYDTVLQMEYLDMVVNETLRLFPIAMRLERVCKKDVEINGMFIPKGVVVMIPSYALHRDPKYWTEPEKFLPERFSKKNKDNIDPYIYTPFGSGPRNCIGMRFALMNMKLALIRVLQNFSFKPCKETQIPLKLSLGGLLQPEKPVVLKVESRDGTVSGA
3',5'-cyclic-AMP phosphodiesterase 4D, sequence (Q08499 whole entry): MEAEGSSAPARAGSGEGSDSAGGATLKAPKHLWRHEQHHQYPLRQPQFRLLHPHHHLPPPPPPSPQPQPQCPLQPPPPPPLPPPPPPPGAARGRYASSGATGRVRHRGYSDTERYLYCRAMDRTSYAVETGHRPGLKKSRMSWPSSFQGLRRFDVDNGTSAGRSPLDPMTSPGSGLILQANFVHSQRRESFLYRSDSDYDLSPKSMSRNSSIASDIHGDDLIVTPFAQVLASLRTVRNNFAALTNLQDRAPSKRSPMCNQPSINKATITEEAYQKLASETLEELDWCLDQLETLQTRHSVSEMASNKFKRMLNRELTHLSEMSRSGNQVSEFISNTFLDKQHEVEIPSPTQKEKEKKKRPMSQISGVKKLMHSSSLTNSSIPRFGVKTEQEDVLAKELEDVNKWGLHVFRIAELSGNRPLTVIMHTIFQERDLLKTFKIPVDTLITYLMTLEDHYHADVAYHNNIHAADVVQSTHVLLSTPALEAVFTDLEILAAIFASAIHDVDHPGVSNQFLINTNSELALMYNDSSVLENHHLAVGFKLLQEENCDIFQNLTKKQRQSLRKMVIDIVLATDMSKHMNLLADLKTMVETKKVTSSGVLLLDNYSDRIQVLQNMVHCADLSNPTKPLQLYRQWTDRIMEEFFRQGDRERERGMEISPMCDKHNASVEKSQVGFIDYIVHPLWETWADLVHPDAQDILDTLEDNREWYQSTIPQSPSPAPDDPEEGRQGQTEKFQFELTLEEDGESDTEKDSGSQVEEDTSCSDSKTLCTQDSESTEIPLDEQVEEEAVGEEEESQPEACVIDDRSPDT
Cytochrome P450 2C9, sequence (P11712 whole entry): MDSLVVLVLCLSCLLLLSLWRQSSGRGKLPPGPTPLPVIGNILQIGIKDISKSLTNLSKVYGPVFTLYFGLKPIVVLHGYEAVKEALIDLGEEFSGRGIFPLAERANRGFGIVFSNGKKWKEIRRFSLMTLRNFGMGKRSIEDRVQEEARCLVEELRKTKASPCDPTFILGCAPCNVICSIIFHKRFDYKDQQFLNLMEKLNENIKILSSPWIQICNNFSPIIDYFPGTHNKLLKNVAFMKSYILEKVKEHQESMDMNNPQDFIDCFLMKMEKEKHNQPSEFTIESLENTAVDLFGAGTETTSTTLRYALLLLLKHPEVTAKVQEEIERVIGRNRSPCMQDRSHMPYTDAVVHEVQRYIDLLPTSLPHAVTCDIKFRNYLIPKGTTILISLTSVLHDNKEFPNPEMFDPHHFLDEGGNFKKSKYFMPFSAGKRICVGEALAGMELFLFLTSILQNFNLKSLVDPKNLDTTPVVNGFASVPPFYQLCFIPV

## C[C@@H]1COCCN1c1nc(N2CCOC[C@@H]2C)nc2sc(-c3cc[nH]n3)nc12
[1]
  AUC(0-t): 4.41 µM·h
[2]
  IC50: 2200 nM
[3]
  solubility: 120 µg/mL (≈ 299 µM)
[4]
  IC50: 394 nM
[5]
  inhibition: Active
[6]
  fraction unbound at 4 h, 5 µM: 0.012
[7]
  Tmax: 1.3 h
[8]
  Tmax: 1.5 h
[9]
  IC50: 17 nM
[10]
  Kp at 7 h: 1.2
[11]
  concentration at 3 h: 5820 nM
[12]
  IC50: > 10000 nM
[13]
  IC50: 1290 nM
[14]
  Kp at 3 h: 1.1
[15]
  IC50: 20 nM
[16]
  Cmax: 2700 nM
[17]
  IC50: 11 nM
[18]
  IC50: 210 nM
[19]
  Kp at 3 h: 1.3
[20]
  efflux ratio: 0.93
[21]
  Ratio IC50: 3570
[22]
  IC50: > 50000 nM
[23]
  IC50: > 50000 nM
[24]
  concentration at 3 h: 2390 nM
[25]
  MRT last: 4.3 h
[26]
  K: 0.006 min⁻¹
[27]
  IC50: 22 nM
[28]
  half-life: 4.3 h
[29]
  AUC(0-t): 4.34 µM·h
[30]
  inhibition: Active
[31]
  concentration at 3 h: 2210 nM
[32]
  Kp at 3 h: 1.1
[33]
  Activity: 95%
[34]
  inhibition: Active
[35]
  Kp at 24 h: 3.1
[36]
  AUC(0-t): 14.9 µM·h
[37]
  MRT last: 2.6 h
[38]
  fraction unbound at 4 h, 5 µM: < 0.01
[39]
  IC50: 1700 nM
[40]
  inhibition: Active

Reference: ChEMBL document CHEMBL4376889, “Discovery of a Brain-Penetrant ATP-Competitive Inhibitor of the Mechanistic Target of Rapamycin (mTOR) for CNS Disorders” (J Med Chem, 2020)
